Where two headings read alike, the source gives them in different places.
How the values were obtained:
[1] = T1-values for the 13C atom (water solution and solid); assay type: physicochemical; details: 7 T
Source text: (§1) T1-values for the ^13C atom in 1-^13C-2,2,2′,2′,2″,2″-hexadeuterotris(hydroxymethyl)nitromethane
(§2) T1-values for the ^13C atom in 2-^13C-2,2-bis(trideuteromethyl)-1,1,3,3-tetradeuteropropane-1,3-diol

[2] = 13C-signal enhancement after low-field pumping and dissolution (solution experiments); assay type: physicochemical; details: 20 mg solid in 3 ml deuterium oxide, 40° C., holding field 0.4 T
Protocol: A sample of solid 1-^13C-2,2,2′,2′,2″,2″-hexadeuterotris(hydroxymethyl)nitromethane was subjected to a magnetic field of 6.56 T at a temperature of 2.5 K for 10 minutes. The sample was then removed from the centre of the magnet to the stray field (7 mT) for a duration 1 s and then returned to the magnet. After another 10 minutes the process was repeated one more.
A sample of solid 1-^13C-2,2,2′,2′,2″,2″-hexadeuterotris(hydroxymethyl)nitromethane (20 mg) was subjected to the above-mentioned pumping procedure (see Examples 5-7) and then in less than 1 second moved to a holding field of 0.4 T where also a sample of deuterium oxide (3 ml) at a temperature of 40° C., stirred by nitrogen bubbling, was kept. […] The sample was inserted into the spectrometer and a ^13C-spectrum was recorded. […]
A sample of solid 2-^13C-2,2-bis(trideuteromethyl)-1,1,3,3-tetradeuteropropane-1,3-diol (20 mg) was subjected to the above-mentioned pumping procedure (see Examples 5-7) and then in less than 1 second moved to a holding field of 0.4 T where also a sample of deuterium oxide (3 ml) at a temperature of 40° C., stirred by nitrogen bubbling, was kept. […] The sample was inserted into the spectrometer and a ^13C-spectrum was recorded. […]

[3] = T1-values for the 13C atom in human bloodplasma; assay type: physicochemical; details: 37° C., 7 T
Source text: as §1, §2

[4] = T1 in the blood after injection of the dissolved polarised agent; assay type: in vivo; details: 300 mg dissolved in 10 ml Ringers Solution, 37° C., pH 7.4, injected
Protocol: 300 mg of sterile Na2^13CO3 or NaH^13CO3 is placed inside a 10 ml plastic injection syringe. The gas inside the syringe is enriched with >20% […]. The syringe is placed inside a magnet (1-20 T) at a temperature of about 4 K (0.001-5 K) until thermodynamic equilibrium is reached.
The syringe is removed and transported to the subject located in the MRI magnet. 10 ml of sterile Ringers Solution (at 37° C., pH 7.4) is aspirated and injected at a rate of 10 ml/sec immediately after the high T1 agent has dissolved. 13C MRI is performed using a fast pulse sequence. T1 in the blood is about 20 s and the distribution of the agent is followed on the MR imager.

[5] = solid
Source text: Where Mmax is the magnetisation of the sample after complete relaxation at the final field.
This procedure can be repeated after the protons have repolarised again, successively building up the carbon polarisation until the spin-temperature of the two nuclei become the same. […] Generally fluorine relaxes even faster than protons and it would be possible to include a fluorine atom in the contrast agent molecule as an internal relaxation agent.
It is also possible to use quadrupolar nuclei for this process. […] The magnetic storage field must be large enough to avoid overlap of the resonances of the wanted nucleus and any rapidly relaxing quadrupolar nuclei. It is known that this phenomenon causes the rapid relaxation of frozen ^129Xe in a low field, when spin diffusion to the quadrupolar ^131Xe becomes efficient.

Compound | T1-value for the 13C atom ([1]; H2O, air saturated, 37° C.) | T1-value for the 13C atom ([1]; H2O, degassed, 37° C.) | T1-value for the 13C atom ([1]; Solid, 2.5 K) | T1-value for the 13C atom ([1]; Solid, 20° C.) | Time until a clear solution was obtained [2] | T1-value for the 13C atom [3] | T1 in the blood [4] | further results
[2H]C([2H])([2H])[13C](C([2H])([2H])[2H])(C([2H])([2H])O)C([2H])([2H])O [2-^13C-2,2-bis(trideuteromethyl)-1,1,3,3-tetradeuteropropane-1,3-diol] | 133 s | 157 s | 162000 s | 237 s | less than 1 S | 96 s | – | –
[2H]C([2H])(O)[13C]([N+](=O)[O-])(C([2H])([2H])O)C([2H])([2H])O [1-^13C-2,2,2′,2′,2″,2″-hexadeuterotris(hydroxymethyl)nitromethane] | 95 s | 102 s | 198000 s | 1320 s | less than 1 S | 60 s | – | T1-value for the 13C atom ([1]; Solid, −30° C.): 2820 s
O=[13C]([O-])O.[Na+] [NaH^13CO3, sodium bicarbonate—^13C] | – | – | – | – | – | – | about 20 s | –
O=[13C]([O-])[O-].[Na+].[Na+] [Na2^13CO3] | – | – | – | – | – | – | about 20 s | –
CC(=O)[O-].[Na+] [sodium acetate] | – | – | – | – | – | – | – | T1,0 (time constant for relaxation at no external magnetic field) ([5]; carbonyl carbon): about 5 seconds; T1 of the carbonyl carbon ([5]; at 7 T): 1700 s; T1 of the carbonyl carbon ([5]; room temperature): 1700 s; T1 of the protons ([5]; room temperature): 31 s; T1 of the sodium ions ([5]; room temperature): 1.7 s
